The test system of the assay is Root-knot Nematode (Meloidogyne incognita). The assay can be described thus: Control of root-knot nematode on tomato in the greenhouse. The assay is classed as in vivo, Meloidogyne incognita (on tomato, Lycopersicon esculentum). An excerpt: Evaluation of a liquid formulation consisting of a solution of 2-diethoxyphosphinylimino-1,3-dithietane in polyethylene glycol for the control of root-knot nematode (Meloidogyne incognita) on tomato in the greenhouse.
1. 2-Diethoxyphosphinylimino-1,3-dithietane, 91% real. (Active ingredient; a.i.)
2. Liquid formulation consisting of 20.9%, by weight, of a.i. and 79.1%, by weight, of polyethylene glycol of an average molecular weight of 400.
Tomato (Lycopersicon esculentum; Cv. Bonny Best).
Root-knot Nematode (Meloidogyne incognita) inoculum. [formula] 2-Diethoxyphosphinylimino-1,3-dithietane at 0.75 mg, 1.5 mg and 3.0 mg/liter of soil. Polyethylene glycol blank at 14.4 mg/liter of soil.
All compounds are made up as acetone solutions. One liter of moist potting soil is placed in a suitable stainless steel beaker. One ml of candidate solution is distributed, drop by drop, over the surface of the soil. The beaker is then capped and placed on an off-center rotary mixer and mixed for 2 minutes (about 60 revolutions). After mixing, the soil is divided between two 0.5 liter paper cups by filling the cups half full of soil, then distributing 25 ml root-knot nematode inoculum on the soil and filling the remainder of the container with treated soil. Seedling tomato plants are transplanted into the cups of soil the same day, watered and removed to the greenhouse. After about 4 weeks, the tomato plants are carefully removed from the containers, the soil washed from the roots, and the roots are then examined for nematode galling.
The roots are indexed for galling by the following system: […]

`CCOP(=O)(N=C1SCS1)OCC` [Formulation 1, 2-Diethoxyphosphinylimino-1,3-dithietane]: the “Root-knot index, Average of 3 Replicates” value amounted to 7.0 (0.75 mg/l active ingredient) and 4.7 (1.5 mg/l active ingredient). The Root-knot index reads like this: (0.75 mg/l active ingredient, replicate 1) 8 (61-70% of roots galled); (0.75 mg/l active ingredient, replicate 2) 8 (61-70% of roots galled); (0.75 mg/l active ingredient, replicate 3) 5 (31-40% of roots galled); (1.5 mg/l active ingredient, replicate 1) 6 (41-50% of roots galled); (1.5 mg/l active ingredient, replicate 2) 6 (41-50% of roots galled); (1.5 mg/l active ingredient, replicate 3) 2 (6-10% of roots galled). Also, the Root-knot index runs as follows: (3.0 mg/l active ingredient, replicate 1) 0; (3.0 mg/l active ingredient, replicate 2) 0; (3.0 mg/l active ingredient, replicate 3) “T (less than 1% of roots with galls.)”. Besides, the “protection of the tomato roots from the root-knot nematode” value is, setting by setting: (0.75 mg/l of soil) “poor”; (1.5 mg/l of soil) “poor”; (3.0 mg/l of soil) “excellent”.

The values are drawn from patent US4061740A, “Liquid compositions containing a polyethylene glycol safener and an organophosphorus pesticide” (priority 1976, dated 1977).
